Literature values in patent EP0801943A2, “Cosmetic and dermatological photoprotective compositions containing a triazine derivative and alkyl and/or dialkylesters of alpha, omega-alkanedicarboxylic acid” (Beiersdorf Aktiengesellschaft, priority 1996, dated 1997).

Conditions: maximum amount of the filter that known solvents (Bekannte Lösungsmittel) can dissolve; prior-art statement, no test described

## CCCCC(CC)COC(=O)c1ccc(Nc2nc(Nc3ccc(C(=O)OCC(CC)CCCC)cc3)nc(Nc3ccc(C(=O)OCC(CC)CCCC)cc3)n2)cc1 (stereo not shown) [UVINUL® T 150, 4,4',4''-(1,3,5-Triazin-2,4,6-triyltriimino)-tris-benzoesäure-tris(2-ethylhexylester)]
  Löslichkeit in Lipiden: ≤ 15 Gew.-%
